In ChEMBL document CHEMBL5096239, “Two Binding Sites of SARS-CoV-2 Macrodomain 3 Probed by Oxaprozin and Meclomen” (J Med Chem, 2022):
Active and inactive are the calls of the source. The calls are words filed in the database; no cut-off is given here.

Columns and labels:
[1] = biological target: T1, Replicase polyprotein 1ab (Severe acute respiratory syndrome coronavirus 2, UniProt P0DTD1); experiment: Displacement of carboxyfluorescein-labelled p53-(dG)14 from SARS-CoV-2 Mac3 by fluorescence polarization analysis
[2] = biological target: Replicase polyprotein 1ab (Severe acute respiratory syndrome coronavirus 2) (UniProt P0DTD1); experiment: Binding affinity to 15N-labelled His6-tagged SARS-CoV-2 Mac3 (551 to 675 residues) expressed in Escherichia coli Rosetta assessed as chemical shift perturbations at binding site II (Q594, E595, S609, and M630 residues) at ligand to protein molar ratio of 4:1 by NMR HSQC spectral analysis
[3] = biological target: T1, Replicase polyprotein 1ab; experiment: Displacement of carboxyfluorescein-labelled bbc3-(dG)14 from SARS-CoV-2 Mac3 by fluorescence polarization analysis
[4] = biological target: T1, Replicase polyprotein 1ab; experiment: Binding affinity to 15N-labelled His6-tagged SARS-CoV-2 Mac3 (551 to 675 residues) expressed in Escherichia coli Rosetta assessed as chemical shift perturbations by NMR HSQC spectral analysis
Replicase polyprotein 1a = Replicase polyprotein 1a (Severe acute respiratory syndrome-related coronavirus, UniProt P0C6U8); experiment: Binding affinity to 15N-labelled His6-tagged SARS-CoV Mac3 (527 to 652 residue) expressed in Escherichia coli Rosetta assessed as chemical shift perturbations by NMR HSQC spectral analysis
[5] = biological target: Replicase polyprotein 1a (Severe acute respiratory syndrome-related coronavirus) (UniProt P0C6U8); experiment: Binding affinity to 15N-labelled His6-tagged SARS-CoV Mac3 (527 to 652 residue) expressed in Escherichia coli Rosetta assessed as chemical shift perturbations at binding site 1 (C550, V553, 1556, and M606 residues) by NMR HSQC spectral analysis
[6] = biological target: Replicase polyprotein 1a (Severe acute respiratory syndrome-related coronavirus) (UniProt P0C6U8); experiment: Binding affinity to 15N-labelled His6-tagged SARS-CoV Mac3 (527 to 652 residue) expressed in Escherichia coli Rosetta assessed as chemical shift perturbations at binding site 1 (1556, T559, M606, T612, S636, and S637 residues) by NMR HSQC spectral analysis
[7] = biological target: Replicase polyprotein 1ab (Severe acute respiratory syndrome coronavirus 2) (UniProt P0DTD1); experiment: Binding affinity to 15N-labelled His6-tagged SARS-CoV-2 Mac3 (551 to 675 residues) expressed in Escherichia coli Rosetta assessed as chemical shift perturbations at binding site I (M630, Y634, V635, T636, and S660 residues) at ligand to protein molar ratio of 4:1 by NMR HSQC spectral analysis

For `O=C(O)CCc1nc(-c2ccccc2)c(-c2ccccc2)o1` [OXAPROZIN], the Ki [1] was 900 µM, the Activity [2] was “Active” and the Ki [3] was 400 µM. The Kd [4] was 1200 µM, the Kd (Replicase polyprotein 1a) was 1000 µM and the Activity [5] was “Active”.
In the case of `Cc1ccc(Cl)c(Nc2ccccc2C(=O)O)c1Cl` [MECLOFENAMIC ACID], the Ki [1] is reported as 200 µM, the Ki [3] is reported as 50 µM and the Activity [6] is reported as “Active”. For the same compound, the Kd [4] was 900 µM, the Kd (Replicase polyprotein 1a) was 220 µM and the Activity [7] was “Active”.
